Row | Compound | melting point
1 | Cc1cc(N2CCN(CC3CC3)C2=O)sc1C(=O)NCc1cccnc1 [Example 15.3, 5-(3-(cyclopropylmethyl)-2-oxoimidazolidin-1-yl)-3-methyl-N-(pyridin-3-ylmethyl)thiophene-2-carboxamide] | 157 to 159 °C
2 | Cc1nc(N2CCN(Cc3ccc4nsnc4c3)C2=O)sc1C(=O)NCc1cccnc1 [Example 32.7, 2-(3-(benzo[c][1,2,5]thiadiazol-5-ylmethyl)-2-oxoimidazolidin-1-yl)-4-methyl-N-(pyridin-3-ylmethyl)thiazole-5-carboxamide] | 105 to 107 °C
3 | Cc1nc(N2CCN(Cc3ccccc3)S2(=O)=O)sc1C(=O)NCc1cccnc1 [Example 27.2, 2-(5-benzyl-1,1-dioxido-1,2,5-thiadiazolidin-2-yl)-4-methyl-N-(pyridin-3-ylmethyl)-1,3-thiazole-5-carboxamide] | 140 to 142 °C
4 | Cc1nc(N2CCN(Cc3ccc(OC(F)(F)F)cc3)C2=O)sc1C(=O)NCCc1cccnc1 [Example 9.32, 4-methyl-2-(2-oxo-3-(4-(trifluoromethoxy)benzyl)imidazolidin-1-yl)-N-(2-(pyridin-3-yl)ethyl)thiazole-5-carboxamide] | 172 to 173 °C
5 | Cc1nc(-n2cnn(Cc3ccc(F)cc3)c2=O)sc1C(=O)NCc1cnn(C)c1 [Example 21.10, 2-(1-(4-fluorobenzyl)-5-oxo-1H-1,2,4-triazol-4(5H)-yl)-4-methyl-N-((1-methyl-1H-pyrazol-4-yl)methyl)thiazole-5-carboxamide] | 205 to 206 °C
6 | Cc1csc(N2CCN(Cc3ccc(C(F)(F)F)cc3)C2=O)n1 [Example 5.14, 1-(4-methylthiazol-2-yl)-3-(4-(trifluoromethyl)benzyl)imidazolidin-2-one] | 102 to 103 °C
7 | Cc1nc(N2CCN(Cc3ccccc3C(F)(F)F)C2=O)sc1C(=O)NCc1ccccc1 [Example 23.1, N-benzyl-4-methyl-2-(2-oxo-3-(2-(trifluoromethyl)benzyl)imidazolidin-1-yl)thiazole-5-carboxamide] | 138 to 140 °C
8 | Cc1cc(-n2cnn(Cc3ccccc3)c2=O)sc1C(=O)NCc1cccnc1 [Example 31.1, 5-(1-benzyl-5-oxo-1H-1,2,4-triazol-4(5H)-yl)-3-methyl-N-(pyridin-3-ylmethyl)thiophene-2-carboxamide] | 180 to 181 °C
9 | Cc1csc(NC(=O)c2ccc(CN3CCN(c4nc(C)cs4)C3=O)cc2)n1 [Example 8.10, N-(4-methylthiazol-2-yl)-4-((3-(4-methylthiazol-2-yl)-2-oxoimidazolidin-1-yl)methyl)benzamide] | 197 to 198 °C
10 | Cc1nc(N2CCN(Cc3ccc(OC(F)(F)F)cc3)C2=O)sc1C(=O)NCc1ccccc1 [Example 9.23, N-benzyl-4-methyl-2-(2-oxo-3-(4-(trifluoromethoxy)benzyl)imidazolidin-1-yl)thiazole-5-carboxamide] | 197 to 198 °C
11 | Cc1nc(-n2cnn(Cc3ccc(C(F)(F)F)cc3)c2=O)sc1C(=O)NCc1cccnc1 [Example 21, 4-methyl-2-(5-oxo-1-(4-(trifluoromethyl)benzyl)-1H-1,2,4-triazol-4(5H)-yl)-N-(pyridin-3-ylmethyl)thiazole-5-carboxamide] | 156 to 158 °C
12 | Cc1nc(N2CCN(Cc3ccc(C(F)(F)F)cc3)C2=O)sc1C(=O)NCc1cccnc1 [Example 9.12, 4-methyl-2-(2-oxo-3-(4-(trifluoromethyl)benzyl)imidazolidin-1-yl)-N-(pyridin-3-ylmethyl)thiazole-5-carboxamide] | 107 to 108 °C
13 | Cc1nc(N2CCN(CC(=O)NCc3ccc(F)cc3)C2=O)sc1C(=O)NCc1ccccc1 [Example 15.5, N-benzyl-2-(3-(2-(4-fluorobenzylamino)-2-oxoethyl)-2-oxoimidazolidin-1-yl)-4-methylthiazole-5-carboxamide] | 232 to 234 °C
14 | Cc1nc(N2CCN(Cc3ccc(C(F)(F)F)cc3)C2=O)sc1C(=O)NCc1ccccc1 [Example 9.13, N-benzyl-4-methyl-2-(2-oxo-3-(4-(trifluoromethyl)benzyl)imidazolidin-1-yl)thiazole-5-carboxamide] | 127 to 128 °C
15 | Cc1nc(N2CCN(Cc3ccccc3)S2(=O)=O)sc1C(=O)NCc1ccccc1 [Example 27.1, N-benzyl-2-(5-benzyl-1,1-dioxido-1,2,5-thiadiazolidin-2-yl)-4-methyl-1,3-thiazole-5-carboxamide] | 135 to 137 °C
16 | Cc1nc(N2CCN(Cc3ccccc3)C2=O)sc1C(=O)NCc1ccccc1F [Example 9.1, 2-(3-benzyl-2-oxoimidazolidin-1-yl)-N-(2-fluorobenzyl)-4-methylthiazole-5-carboxamide] | 167 to 168 °C
17 | Cc1nc(N2CCN(Cc3ncoc3-c3ccccc3)C2=O)sc1C(=O)NCc1cccnc1 [Example 32.5, 4-methyl-2-(2-oxo-3-((5-phenyloxazol-4-yl)methyl)imidazolidin-1-yl)-N-(pyridin-3-ylmethyl)thiazole-5-carboxamide] | 78 to 81 °C
18 | Cc1nc(N2C[C@@H](Cc3ccccc3)NC2=O)sc1C(=O)NCc1ccccc1 [Example 9.25, (R)—N-benzyl-2-(4-benzyl-2-oxoimidazolidin-1-yl)-4-methylthiazole-5-carboxamide] | 212 to 214 °C
19 | Cc1nc(N2CCN(Cc3ccccc3)/C2=N\C#N)sc1C(=O)NCc1ccccc1 [Example 27, N-benzyl-2-(3-benzyl-2-(cyanoimino)imidazolidin-1-yl)-4-methylthiazole-5-carboxamide] | 226 to 228 °C
20 | Cc1nc(N2C(=O)N(Cc3ccc(F)cc3)CC2O)sc1C(=O)NCc1cccnc1 (stereo not shown) [Example 16.2, 2-(3-(4-fluorobenzyl)-5-hydroxy-2-oxoimidazolidin-1-yl)-4-methyl-N-(pyridin-3-ylmethyl)thiazole-5-carboxamide] | 64 to 66 °C
21 | Cc1cc(N2CCN(Cc3ccc(N)cc3)C2=O)sc1C(=O)NCc1cccnc1 [Example 58, 5-(3-(4-aminobenzyl)-2-oxoimidazolidin-1-yl)-3-methyl-N-(pyridin-3-ylmethyl)thiophene-2-carboxamide] | 118 to 120 °C

The next lines start with the values.

Row | melting point | Compound
22 | 138 to 139 °C | Cc1ccc(CNC(=O)c2sc(N3CCN(Cc4ccccc4)C3=O)nc2C)o1 [Example 9.10, 2-(3-benzyl-2-oxoimidazolidin-1-yl)-4-methyl-N-((5-methylfuran-2-yl)methyl)thiazole-5-carboxamide]
23 | 96 to 97 °C | Cc1nc(N2CCN(Cc3ccccc3)C2=O)sc1C(=O)NCc1ccncc1 [Example 9.9, 2-(3-benzyl-2-oxoimidazolidin-1-yl)-4-methyl-N-(pyridin-4-ylmethyl)thiazole-5-carboxamide]
24 | 136 to 137 °C | Cc1nc(N2CCN(CC3CCC3)C2=O)sc1C(=O)NCc1cccnc1 [Example 9.37, 2-(3-(cyclobutylmethyl)-2-oxoimidazolidin-1-yl)-4-methyl-N-(pyridin-3-ylmethyl)thiazole-5-carboxamide]
25 | 187 to 189 °C | Cc1nc(N2CCN(Cc3ccc(F)cc3)C2=O)sc1C(=O)NCc1ncco1 [Example 32.11, 2-(3-(4-fluorobenzyl)-2-oxoimidazolidin-1-yl)-4-methyl-N-(oxazol-2-ylmethyl)thiazole-5-carboxamide]
26 | 116 to 117 °C | Cc1nc(-n2cnn(CC3CC3)c2=O)sc1C(=O)NCc1cccnc1 [Example 21.4, 2-(1-(cyclopropylmethyl)-5-oxo-1H-1,2,4-triazol-4(5H)-yl)-4-methyl-N-(pyridin-3-ylmethyl)thiazole-5-carboxamide]
27 | 197 to 199 °C | CCOC(=O)c1sc(N2CCNC2=O)nc1C [Example 3, ethyl 4-methyl-2-(2-oxoimidazolidin-1-yl)thiazole-5-carboxylate]
28 | 130 to 132 °C | Cc1nc(N2CCN(C(=O)c3ccc(F)cc3)C2=O)sc1C(=O)NCc1ccccc1 [Example 34, N-benzyl-2-(3-(4-fluorobenzoyl)-2-oxoimidazolidin-1-yl)-4-methylthiazole-5-carboxamide]
29 | 147 to 148 °C | Cc1nc(N2CCN(Cc3ccccc3)C2=O)sc1C(=O)NCc1ccc(F)cc1 [Example 9, 2-(3-benzyl-2-oxoimidazolidin-1-yl)-N-(4-fluorobenzyl)-4-methylthiazole-5-carboxamide]
30 | 217 to 219 °C | Cc1nc(N2C(=O)CN(c3ccc(F)cc3)C2=O)sc1C(=O)NCc1ccccc1 [Example 2, N-benzyl-2-(3-(4-fluorophenyl)-2,5-dioxoimidazolidin-1-yl)-4-methylthiazole-5-carboxamide]
31 | 124 to 126 °C | COC(=O)c1cnc(N2CCN(CC3CC3)C2=O)s1 [Example 24, methyl 2-(3-(cyclopropylmethyl)-2-oxoimidazolidin-1-yl)thiazole-5-carboxylate]
32 | 110 to 113 °C | Cc1nc(N2CCN(Cc3cccnc3)C2=O)sc1C(=O)NCc1ccccc1 [Example 32.9, N-benzyl-4-methyl-2-(2-oxo-3-(pyridin-3-ylmethyl)imidazolidin-1-yl)thiazole-5-carboxamide]
33 | 192 to 193 °C | Cc1nc(N2CCN(Cc3ccc(F)cc3)C2=O)sc1C(=O)NCc1ccccc1 [Example 9.21, N-benzyl-2-(3-(4-fluorobenzyl)-2-oxoimidazolidin-1-yl)-4-methylthiazole-5-carboxamide]
34 | 169 to 171 °C | Cc1nc(N2CCN(Cc3ccccc3)C2=O)sc1C(=O)NCc1ccccc1 [Example 8, N-benzyl-2-(3-benzyl-2-oxoimidazolidin-1-yl)-4-methylthiazole-5-carboxamide]
35 | 176 to 177 °C | Cc1nc(N2CCN(Cc3ccccc3)C2=O)sc1C(=O)NCc1cc(F)ccc1F [Example 9.2, 2-(3-benzyl-2-oxoimidazolidin-1-yl)-N-(2,5-difluorobenzyl)-4-methylthiazole-5-carboxamide]
36 | 208 to 209 °C | Cc1nc(N2CCN(Cc3ccccc3)C2=O)sc1C(=O)NCc1cc(F)cc(F)c1 [Example 9.3, 2-(3-benzyl-2-oxoimidazolidin-1-yl)-N-(3,5-difluorobenzyl)-4-methylthiazole-5-carboxamide]
37 | 218 to 221 °C | Cc1nc(N2CCN(CCCc3ccccc3)C2=O)sc1C(=O)O [Example 6.12, 4-methyl-2-(2-oxo-3-(3-phenylpropyl)imidazolidin-1-yl)thiazole-5-carboxylic acid]

From patent US8293768B2, “Organic compounds” (Novartis AG, priority 2006, dated 2012)
